Measurements from patent US20240415921A1, “METHODS OF TREATING CANCER BY TARGETING TUMOR-ASSOCIATED MACROPHAGES” (ENDOCYTE, INC., priority 2014, published 2024).

Tested on: 4T1 TAMs
Test: Activity against 4T1 TAMs in-vivo (FACS of harvested tumors)
Parameters: species or system nude rats
Conditions: single i.v. dose (Example 1 100 nmol/kg; EC0923 alone 50 μmol/kg), tumors harvested four days later
Excerpt: EXAMPLE 4. Example 1 activity against 4T1 TAMs in-vivo. As a proof-of-concept study, female Foxn1^nu nude rats (Harlan, Inc., Indianapolis, IN) on a folate-deficient diet are subcutaneously implanted with 1×10^6 4T1 tumor cells in the left and right mammary regions (2 tumors per animal). When the tumors reach about 900-1000 mm^3, the animals are intravenously dosed with (i) PBS (n=1), (ii) 100 nmol/kg of the folic acid-releasable linker-drug conjugate, such as Example1 (n=1), (iii) 100 nmol/kg of Example1 plus 50 μmol/kg of EC0923 (n=1), or (iv) 50 μmol/kg of EC0923 (n=1). Four days later, the tumors are harvested, enzymatically digested, and subjected to FACS analysis. The tumor cell suspensions are stained for macrophage markers (CD163 and/or CD11b), cell viability (propidium iodide), and late and early apoptosis (Annexin V).
EXAMPLE 13. Preparation of 4T1 xenograft tumors from nude rats and MDA-MB-231 tumors isolated from nude mice and A549 tumors isolated from nude mice. Each tumor is minced and placed into 20 mL of RPMI1640 (serum free) containing 0.5 mg/mL Collagenase IV, 0.05 mg/mL hyaluronidase, and 0.1 mg/mL DNaseI and placed in a shaker at 200 rpm for 1 hr at 37° C. […]

## Nc1nc2ncc(CNc3ccc(C(=O)N[C@@H](CCC(=O)N[C@H](CC(=O)O)C(=O)N[C@H](CC(=O)O)C(=O)O)C(=O)O)cc3)nc2c(=O)[nH]1 [EC0923, pteroyl-[…]Glu-D-Asp-D-Asp]
  viable CD163(+) CD11b(+) TAM population in 4T1 tumors: does not have any effect
